Biological target: T1, Arachidonate 5-lipoxygenase-activating protein (Homo sapiens, UniProt P20292)
T1 sequence (P20292 whole entry): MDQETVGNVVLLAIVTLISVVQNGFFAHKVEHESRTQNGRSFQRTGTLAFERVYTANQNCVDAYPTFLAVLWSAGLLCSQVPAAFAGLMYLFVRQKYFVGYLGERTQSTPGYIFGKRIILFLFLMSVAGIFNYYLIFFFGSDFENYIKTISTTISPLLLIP
Assay: Binding Assay
Experimental: The FLAP binding assay is performed in HTRF format (homogeneous time resolved fluorescence). FLAP-containing membranes (1 μg/well final for human) are incubated in the presence of the HTRF ligand. […] The reaction is allowed to proceed for two hours after which the plate is read on an Envision plate reader in HTRF mode. Data are expressed as a HTRF ratio. For human FLAP binding assays, data are analyzed with 3DX Explorer software. […] For analysis, data from multiple runs are averaged and each compound may be tested in 2 to 20 runs. Each run comprises two plates and each plate includes duplicates. Data from each plate is averaged and data are imported into 3DX. The data from multiple runs are aggregated as the average of duplicates of the calculated ratios in order to calculate Ki and IC50 values.

**Q.** `Nc1cnc(-c2ccc(-c3ccccc3-c3ccc(N)nn3)cc2F)cn1` [US9745328, Compound 863] was tested. Which Ki did it give?
**A.** The Ki was 41.1 nM.
